pIC50: −log10 of the molar value. “And” between values parts separate entries of the source, which are not always exact repeats. Equal entries are not always repeated.
Test system: DMS-114 complex spheroids with HUVEC/MSC, growth % test/control
Assay: Anticancer human tumor DMS-114 cell line growth inhibition [AhR];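 further: spheroids exposed to agents for 7 days before readout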;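 on viability, T/C: 100% = DMSO vehicle control wells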
Details: for viability, T/C: stronger effect = lower value
In short: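 Complex tumor spheroids co-cultured with HUVEC and human MSC stroma; AhR antagonists tested in combination with standard-of-care and investigational agents. Top concentration at or near clinical Cmax (else 10 microM), half-log dilutions; growth expressed as percent test/control.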

[1] = curve of first compound, second compound 0.1 µM
[2] = curve of first compound, second compound 0.316 µM
[3] = curve of first compound, second compound 1 µM
[4] = curve of first compound, second compound 3.16 µM
[5] = curve of first compound, second compound 10 µM
[6] = second compound 0.1 µM, first compound 0.0316 µM
[7] = second compound 0.1 µM, first compound 0.1 µM
[8] = second compound 0.1 µM, first compound 0.316 µM
[9] = second compound 0.1 µM, first compound 1 µM
[10] = second compound 0.1 µM, first compound 3.16 µM
[11] = second compound 0.1 µM, first compound 10 µM
[12] = second compound 0.316 µM, first compound 0.0316 µM
[13] = second compound 0.316 µM, first compound 0.1 µM
[14] = second compound 0.316 µM, first compound 0.316 µM
[15] = second compound 0.316 µM, first compound 1 µM
[16] = second compound 0.316 µM, first compound 3.16 µM
[17] = second compound 0.316 µM, first compound 10 µM
[18] = second compound 1 µM, first compound 0.0316 µM
[19] = second compound 1 µM, first compound 0.1 µM
[20] = second compound 1 µM, first compound 0.316 µM
[21] = second compound 1 µM, first compound 1 µM
[22] = second compound 1 µM, first compound 3.16 µM
[23] = second compound 1 µM, first compound 10 µM
[24] = second compound 3.16 µM, first compound 0.0316 µM
[25] = second compound 3.16 µM, first compound 0.1 µM
[26] = second compound 3.16 µM, first compound 0.316 µM
[27] = second compound 3.16 µM, first compound 1 µM
[28] = second compound 3.16 µM, first compound 3.16 µM
[29] = second compound 3.16 µM, first compound 10 µM
[30] = second compound 10 µM, first compound 0.0316 µM
[31] = second compound 10 µM, first compound 0.1 µM
[32] = second compound 10 µM, first compound 0.316 µM
[33] = second compound 10 µM, first compound 1 µM
[34] = second compound 10 µM, first compound 3.16 µM
[35] = second compound 10 µM, first compound 10 µM

For COc1ccc([C@@H](O)c2cc(-c3ncnc4cc(N5CCOCC5)ccc34)c(F)cc2Cl)nn1 + Cc1ccccc1N=Nc1ccc(NC(=O)c2ccnn2C)c(C)c1, the pIC50 [1] was < 5.00, the pIC50 [2] was < 5.00 and the pIC50 [3] was < 5.00. The pIC50 [4] was < 5.00, the pIC50 [5] was < 5.00 and the viability, T/C [6] was 92.6%. The viability, T/C [7] was 106%, the viability, T/C [8] was 114% and the viability, T/C [9] was 121%. It also gave a viability, T/C [10] of 124%, a viability, T/C [11] of 96.6% and a viability, T/C [12] of 98.1%. It also gave a viability, T/C [13] of 95.7%, a viability, T/C [14] of 104% and a viability, T/C [15] of 104%. It also gave a viability, T/C [16] of 111%, a viability, T/C [17] of 99.8% and a viability, T/C [18] of 96.6%. For the same molecule, the viability, T/C [19] was 92%, the viability, T/C [20] was 94.6% and the viability, T/C [21] was 114%. The viability, T/C [22] was 129%, the viability, T/C [23] was 97% and the viability, T/C [24] was 96.7%. The viability, T/C [25] was 100%, the viability, T/C [26] was 91.8% and the viability, T/C [27] was 103%. The viability, T/C [28] was 112%, the viability, T/C [29] was 84.4% and the viability, T/C [30] was 94.6%. It also gave a viability, T/C [31] of 94.2%, a viability, T/C [32] of 90.8% and a viability, T/C [33] of 91%. The viability, T/C [34] was 91.4% and the viability, T/C [35] was 53.6%.

With Cn1ncnc1C1c2n[nH]c(=O)c3cc(F)cc(c23)NC1c1ccc(F)cc1 (configuration not stated) + Cc1cncc(-c2nc(NCCc3c[nH]c4ccccc34)c3ncn(C(C)C)c3n2)c1 the pIC50 [1] was < 7.00, the pIC50 [2] was < 7.00 and the pIC50 [3] was < 7.00. For the same molecule, the pIC50 [4] was < 7.00, the pIC50 [5] was > 9.50 and the viability, T/C (second compound 0.1 µM, first compound 0.000316 µM) was 103%. The viability, T/C (second compound 0.1 µM, first compound 0.001 µM) was 93.9%, the viability, T/C (second compound 0.1 µM, first compound 0.00316 µM) was 100% and the viability, T/C (second compound 0.1 µM, first compound 0.01 µM) was 105%. It also gave a viability, T/C [6] of 98.2%, a viability, T/C [7] of 75.5% and a viability, T/C (second compound 0.316 µM, first compound 0.000316 µM) of 87.5%. For the same molecule, the viability, T/C (second compound 0.316 µM, first compound 0.001 µM) was 89.6%, the viability, T/C (second compound 0.316 µM, first compound 0.00316 µM) was 88.1% and the viability, T/C (second compound 0.316 µM, first compound 0.01 µM) was 87.1%. The viability, T/C [12] was 84.7%, the viability, T/C [13] was 80.2% and the viability, T/C (second compound 1 µM, first compound 0.000316 µM) was 94.1%. It also gave a viability, T/C (second compound 1 µM, first compound 0.001 µM) of 99%, a viability, T/C (second compound 1 µM, first compound 0.00316 µM) of 96.8% and a viability, T/C (second compound 1 µM, first compound 0.01 µM) of 93.6%. The viability, T/C [18] was 93.3%, the viability, T/C [19] was 81.3% and the viability, T/C (second compound 3.16 µM, first compound 0.000316 µM) was 85.4%. For the same molecule, the viability, T/C (second compound 3.16 µM, first compound 0.001 µM) was 95.4%, the viability, T/C (second compound 3.16 µM, first compound 0.00316 µM) was 89.3% and the viability, T/C (second compound 3.16 µM, first compound 0.01 µM) was 77.3%. For the same molecule, the viability, T/C [24] was 79.2%, the viability, T/C [25] was 74.9% and the viability, T/C (second compound 10 µM, first compound 0.000316 µM) was 47.6%. The viability, T/C (second compound 10 µM, first compound 0.001 µM) was 50.7%, the viability, T/C (second compound 10 µM, first compound 0.00316 µM) was 42.7% and the viability, T/C (second compound 10 µM, first compound 0.01 µM) was 41.6%. For the same molecule, the viability, T/C [30] was 37.6% and the viability, T/C [31] was 45.2%.

For CC(C)c1c(-c2ccccc2)nc2c(C#N)c[nH]n2c1=O + Cc1ccccc1N=Nc1ccc(NC(=O)c2ccnn2C)c(C)c1, the pIC50 [1] was < 5.00, the pIC50 [2] was < 5.00 and the pIC50 [3] was < 5.00. The pIC50 [4] was < 5.00, the pIC50 [5] was < 5.00 and the viability, T/C [6] was 104%. It also gave a viability, T/C [7] of 108%, a viability, T/C [8] of 105% and a viability, T/C [9] of 103%. For the same molecule, the viability, T/C [10] was 113%, the viability, T/C [11] was 95.9% and the viability, T/C [12] was 95.5%. The viability, T/C [13] was 97.7%, the viability, T/C [14] was 98.9% and the viability, T/C [15] was 94.3%. It also gave a viability, T/C [16] of 95.9%, a viability, T/C [17] of 101% and a viability, T/C [18] of 95.3%. The viability, T/C [19] was 96.8%, the viability, T/C [20] was 102% and the viability, T/C [21] was 103%. The viability, T/C [22] was 95.3%, the viability, T/C [23] was 99.2% and the viability, T/C [24] was 96%. It also gave a viability, T/C [25] of 95.8%, a viability, T/C [26] of 93% and a viability, T/C [27] of 96.3%. It also gave a viability, T/C [28] of 107%, a viability, T/C [29] of 102% and a viability, T/C [30] of 98.3%. For the same molecule, the viability, T/C [31] was 96.9%, the viability, T/C [32] was 95.6% and the viability, T/C [33] was 90.5%. The viability, T/C [34] was 94.7% and the viability, T/C [35] was 88.8%.

With CC[C@@]1(O)C(=O)OCc2c1cc1n(c2=O)Cc2cc3c(CN(C)C)c(O)ccc3nc2-1 the viability, T/C (compound 0.000316 µM) was 101% (2×) and 99%, the viability, T/C (compound 0.001 µM) was 96.5% and 104% and 98.2% and the viability, T/C (compound 0.00316 µM) was 93.2% and 85.7% and 107%. For the same molecule, the viability, T/C (compound 0.01 µM) was 79.9% and 87.8% and 95.2%, the viability, T/C (compound 0.0316 µM) was 39.3% and 44.6% and 60.9% and the viability, T/C (compound 0.1 µM) was 19% and 22.2% and 43.2%. For the same molecule, the pIC50 (curve of compound) was 7.63 and 7.56 and 7.19.

In the case of COc1cc(Nc2ncc3c(n2)-c2ccc(Cl)cc2C(c2c(F)cccc2OC)=NC3)ccc1C(=O)O + CC(CO)NC(=O)c1cc(-c2ccc(Cl)cc2)nn(-c2cnn(C)c2)c1=O, the pIC50 [1] was > 7.50, the pIC50 [2] was > 7.50 and the pIC50 [3] was > 7.50. For the same molecule, the pIC50 [4] was > 7.50, the pIC50 [5] was > 7.50 and the viability, T/C [6] was 24.8%. It also gave a viability, T/C [7] of 25.1%, a viability, T/C [8] of 63.5% and a viability, T/C [9] of 53.1%. It also gave a viability, T/C [10] of 69.2%, a viability, T/C [11] of 54.8% and a viability, T/C [12] of 28.4%. The viability, T/C [13] was 25.6%, the viability, T/C [14] was 58% and the viability, T/C [15] was 72%. The viability, T/C [16] was 63.7%, the viability, T/C [17] was 65.5% and the viability, T/C [18] was 25.8%. For the same molecule, the viability, T/C [19] was 23.3%, the viability, T/C [20] was 63.6% and the viability, T/C [21] was 58.3%. It also gave a viability, T/C [22] of 61.4%, a viability, T/C [23] of 59.8% and a viability, T/C [24] of 26.2%. It also gave a viability, T/C [25] of 21.2%, a viability, T/C [26] of 65.6% and a viability, T/C [27] of 62.3%. The viability, T/C [28] was 73.6%, the viability, T/C [29] was 64.6% and the viability, T/C [30] was 25.6%. It also gave a viability, T/C [31] of 24.2%, a viability, T/C [32] of 50.6% and a viability, T/C [33] of 61.5%. The viability, T/C [34] was 58.9% and the viability, T/C [35] was 66.9%.
